In ChEMBL document CHEMBL4321794, “Discovery and Optimization of 2-Arylquinazolin-4-ones into a Potent and Selective Tankyrase Inhibitor Modulating Wnt Pathway Activity” (J Med Chem, 2019):
Converted amounts (≈) assume the structure as drawn. The source made the active and inactive calls. The calls are words filed in the database; no cut-off is given here.

Assays:
[1] = Thermodynamic solubility in phosphate buffer at pH 7.4 at 2 mg incubated under shaking condition for 6 hrs followed by rechecking and readjusting pH to 7.4 and further incubated for 18 hrs by HPLC/UV detection method; type: physicochemical; details: read-out: Therm_solubility
[2] = molecular target: T1, Protein mono-ADP-ribosyltransferase PARP8 (Homo sapiens, UniProt Q8N3A8); assay: Inhibition of human recombinant PARP8 by chemiluminescence method
T1 sequence (Q8N3A8 whole entry): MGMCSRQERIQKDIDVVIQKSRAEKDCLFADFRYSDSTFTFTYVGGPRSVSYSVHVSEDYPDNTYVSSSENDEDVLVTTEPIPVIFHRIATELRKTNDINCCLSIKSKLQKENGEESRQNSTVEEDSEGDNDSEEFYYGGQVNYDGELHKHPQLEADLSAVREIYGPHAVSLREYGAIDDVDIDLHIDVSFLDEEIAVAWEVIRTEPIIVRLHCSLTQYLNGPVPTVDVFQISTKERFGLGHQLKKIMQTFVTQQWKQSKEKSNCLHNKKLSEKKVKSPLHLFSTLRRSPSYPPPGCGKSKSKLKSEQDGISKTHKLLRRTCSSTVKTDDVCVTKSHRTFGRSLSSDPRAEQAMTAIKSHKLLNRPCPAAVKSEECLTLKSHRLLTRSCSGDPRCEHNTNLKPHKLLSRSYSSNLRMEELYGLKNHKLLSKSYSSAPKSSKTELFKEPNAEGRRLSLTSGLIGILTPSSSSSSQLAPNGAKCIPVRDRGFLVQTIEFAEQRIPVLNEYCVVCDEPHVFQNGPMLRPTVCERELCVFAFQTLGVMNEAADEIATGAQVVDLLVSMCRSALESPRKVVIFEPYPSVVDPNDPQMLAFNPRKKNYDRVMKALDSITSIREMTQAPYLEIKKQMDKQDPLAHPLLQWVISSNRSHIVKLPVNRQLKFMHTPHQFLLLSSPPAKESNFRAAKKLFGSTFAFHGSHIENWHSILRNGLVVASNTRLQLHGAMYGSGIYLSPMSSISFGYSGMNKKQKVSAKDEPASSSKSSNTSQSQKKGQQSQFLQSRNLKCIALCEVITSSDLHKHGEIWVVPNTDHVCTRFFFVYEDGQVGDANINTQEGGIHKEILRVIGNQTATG

[3] = molecular target: T2, Protein mono-ADP-ribosyltransferase TIPARP (Homo sapiens, UniProt Q7Z3E1); assay: Inhibition of N-terminal FLAG-tagged recombinant human PARP7 (400 to 657 residues) expressed in Baculovirus infected Sf9 cells using biotinylated substrate after 1 hr by chemiluminescence method
T2 sequence (Q7Z3E1 whole entry): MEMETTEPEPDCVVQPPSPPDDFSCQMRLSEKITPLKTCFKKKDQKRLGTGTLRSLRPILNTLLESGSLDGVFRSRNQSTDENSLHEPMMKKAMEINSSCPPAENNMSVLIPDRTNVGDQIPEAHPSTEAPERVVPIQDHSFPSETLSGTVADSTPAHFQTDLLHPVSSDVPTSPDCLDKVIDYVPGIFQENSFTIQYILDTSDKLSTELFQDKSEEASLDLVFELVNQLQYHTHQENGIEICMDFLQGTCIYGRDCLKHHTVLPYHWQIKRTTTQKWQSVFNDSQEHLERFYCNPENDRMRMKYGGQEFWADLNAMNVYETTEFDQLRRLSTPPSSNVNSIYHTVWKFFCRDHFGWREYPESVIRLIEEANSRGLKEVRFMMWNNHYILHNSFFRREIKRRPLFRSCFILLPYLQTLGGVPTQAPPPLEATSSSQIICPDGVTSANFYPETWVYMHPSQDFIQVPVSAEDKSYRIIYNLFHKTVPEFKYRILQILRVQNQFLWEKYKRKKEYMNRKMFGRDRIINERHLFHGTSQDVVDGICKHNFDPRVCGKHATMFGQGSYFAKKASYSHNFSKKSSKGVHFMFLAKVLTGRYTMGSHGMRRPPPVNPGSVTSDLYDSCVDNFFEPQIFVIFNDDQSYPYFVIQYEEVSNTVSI

[4] = system: Mus musculus; assay: Ex vivo inhibition of tankyrase 1/2 in human DLD1 cells xenografted in immunodeficient athymic nude mouse assessed as increase in tankyrase level in tumor lysates at 10 mg/kg, po administered via gavage measured after 12 hrs by luminex based bead assay; type: functional, organism-based; details: Neoplasm, Lysate
[5] = system: Mus musculus; assay: Ex vivo inhibition of tankyrase 1/2 in human DLD1 cells xenografted in immunodeficient athymic nude mouse assessed as increase in axin-2 level in tumor lysates at 10 mg/kg, po administered via gavage measured after 12 hrs by luminex based bead assay; type: functional, organism-based; details: Neoplasm, Lysate
[6] = molecular target: T3, Protein mono-ADP-ribosyltransferase PARP11 (Homo sapiens, UniProt Q9NR21); assay: Inhibition of human N-terminal GST-tagged PARP11 (8 to 338 residues) expressed in baculovirus infected Sf9 insect cells using biotinylated substrate by chemiluminescence method
T3 sequence (Q9NR21 whole entry): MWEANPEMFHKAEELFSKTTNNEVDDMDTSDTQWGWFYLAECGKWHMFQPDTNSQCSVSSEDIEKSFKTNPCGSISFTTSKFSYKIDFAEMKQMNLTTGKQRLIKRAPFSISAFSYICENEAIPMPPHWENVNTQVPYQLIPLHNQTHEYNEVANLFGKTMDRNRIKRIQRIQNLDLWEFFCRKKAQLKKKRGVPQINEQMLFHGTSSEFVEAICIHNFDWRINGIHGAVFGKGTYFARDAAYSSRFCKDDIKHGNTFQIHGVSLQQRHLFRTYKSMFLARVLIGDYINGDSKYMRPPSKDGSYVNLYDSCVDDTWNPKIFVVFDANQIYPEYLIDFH

[7] = Intrinsic clearance in mouse hepatocytes assessed per million cells; type: ADME, cell-based, Hepatocyte; details: read-out: CLH
[8] = Clearance in mouse; type: ADME, organism-based; details: in vivo
[9] = system: Mus musculus; assay: Ex vivo inhibition of tankyrase 1/2 in human DLD1 cells xenografted in immunodeficient athymic nude mouse assessed as increase in axin-2 level in tumor lysates at 10 to 90 mg/kg, po administered via gavage by luminex based bead assay; type: functional, organism-based; details: Neoplasm, Lysate, TDE = time-dependent effect
[10] = system: Mus musculus; assay: Ex vivo inhibition of tankyrase 1/2 in human DLD1 cells xenografted in immunodeficient athymic nude mouse assessed as increase in tankyrase level in tumor lysates at 10 mg/kg, po administered via gavage by luminex based bead assay; type: functional, organism-based; details: Neoplasm, Lysate, TDE = time-dependent effect

solubility thermodynamic at 24 h [1]: 31 µg/mL (≈ 98 µM)
IC50 [2]: > 10 µM
IC50 [3]: > 10 µM
IC50 [6]: > 10 µM
hepatocyte CLint [7]: 15.2 µL/min/1e6 cells
clearance [8]: 6.83 mL/min/kg
Compound: CC(C)(O)c1ccc(-c2nc3c(F)cc(F)cc3c(=O)[nH]2)cc1
inhibition [4]: Active
inhibition [5]: Active
inhibition [9]: Tde
inhibition [10]: Tde
